The results in this text go back to the supplement of paper PMC10307832.

Common to all, as to assay: relative viability (nuclei count vs DMSO), 5 days (fraction); higher = more cells survive
Compound in the assay “kb NB 142-70 + Olaparib”: C1CSC2=C(C(=O)N1)SC3=C2C=C(C=C3)O [kb NB 142-70] + O=C(c1cc(Cc2n[nH]c(=O)c3ccccc23)ccc1F)N1CCN(C(=O)C2CC2)CC1 [Olaparib] (partner 8 µM)
In a few lines:
(§1)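 Values are medians from duplicate plates. Each reflects relative viability, defined as the nuclei count of treated wells over that of vehicle wells. Lung cancer cell lines in 1536-well plates were pin-tool dosed one day after seeding with one drug alone or with a fixed anchor-drug dose plus five library-drug doses (not always all listed) in √10 steps, then fixed, stained and imaged at 4× after 5 days.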

Compound in assay [1]: NCC(=O)Nc1ccc(-n2nc(C(F)(F)F)cc2-c2ccc3c(ccc4ccccc43)c2)cc1 + CC(=O)Nc1cccc(-n2c(=O)n(C3CC3)c(=O)c3c(Nc4ccc(I)cc4F)n(C)c(=O)c(C)c32)c1 [Trametinib] (partner 0.02 µM)
In a few lines:
as §1

Compound in the assay “kb NB 142-70 + Lapatinib”: C1CSC2=C(C(=O)N1)SC3=C2C=C(C=C3)O [kb NB 142-70] + CS(=O)(=O)CCNCc1ccc(-c2ccc3ncnc(Nc4ccc(OCc5cccc(F)c5)c(Cl)c4)c3c2)o1 [Lapatinib] (partner 2 µM)
An outline of the steps:
as §1

Compound in assay [2]: NCC(=O)Nc1ccc(-n2nc(C(F)(F)F)cc2-c2ccc3c(ccc4ccccc43)c2)cc1 + CC1(C)CCC(c2ccc(Cl)cc2)=C(CN2CCN(c3ccc(C(=O)NS(=O)(=O)c4ccc(N[C@H](CCN5CCOCC5)CSc5ccccc5)c(S(=O)(=O)C(F)(F)F)c4)cc3)CC2)C1 [Navitoclax] (partner 0.5 µM)
An outline of the steps:
as §1

Turning to UMC-11, the relative viability came to 0.309 in the assay with kb NB 142-70 + Olaparib (first compound 0.1 µM); 0.315 with kb NB 142-70 + Olaparib (first compound 1 µM); 0.199 in the assay with kb NB 142-70 + Olaparib (first compound 3.162 µM); 0.645 in assay [1] (first compound 0.02 µM); 0.85 in assay [1] (first compound 0.06325 µM); 0.751 in assay [1] (first compound 0.2 µM). Besides, the relative viability came out at 0.773 in assay [1] (first compound 0.6325 µM); 0.747 in assay [1] (first compound 2 µM); 0.964 with kb NB 142-70 + Lapatinib (first compound 0.1 µM); 0.836 with kb NB 142-70 + Lapatinib (first compound 1 µM); 0.535 with kb NB 142-70 + Lapatinib (first compound 3.162 µM); 0.303 in assay [2] (first compound 0.02 µM). Also, the relative viability in assay [2] (first compound 0.06325 µM) is 0.349; in assay [2] (first compound 0.2 µM) it was 0.35; in assay [2] (first compound 0.6325 µM), 0.304; in assay [2] (first compound 2 µM) it was 0.328.
